The values that follow are results of earlier work, collected in publication PMC9528030 (ACS chemical biology, 2022).

The test system of the series is SARS-CoV-2. Conditions: read-out: EC50 in a CPE assay; cited from earlier work.

Regarding `C[C@@H](OC(C)(C)C)[C@H](NC(=O)OCc1ccccc1)C(=O)N[C@@H](CC1CCCCC1)C(=O)N[C@H](C=O)C[C@@H]1CCNC1=O` [MPI8], the EC50 – broadly, the concentration at which the effect is half-maximal – is 30 nM.
